Patent publication US7118895B2, “Process for producing aglycon by using diglycosidase and flavor-improved food containing the aglycon and converting agent to be used in the process” (Amano Enzyme Inc., priority 2000, dated 2006)

System: Crude diglycosidase
Test: Examination of pH in the conversion into isoflavone aglycons by diglycosidase using soybean materials
Type: biochemical, Penicillium multicolor IAM7153
Design: Decomposition efficiency of genistin family in soymilk / Decomposition efficiency of genistin family in defatted soybean / Decomposition efficiency of daidzin family in defatted soybean: concentration or dose not given beside the values
Details: for Decomposition efficiency of genistin family in roasted soy flour: 55° C.
Procedure: A substrate solution of 450 μL was prepared by suspending 50 mg of each soybean material (roasted soy flour (manufactured by Fuji Shokuryo K.K.), soymilk (manufactured by Gitoh Shokuhin K.K.), defatted soybean (manufactured by Fuji Seiyu K.K.), concentrated soybean protein (manufactured by Fuji Seiyu K.K.)), and adjusting the pH to 2 to 11 with hydrochloric acid or sodium hydroxide. Each enzyme solution of pH 2–11 wherein diglycosidase activity of crude diglycosidase was adjusted to 1.88 AU/mL was added thereto in an amount of 50 μL and the whole was reacted at 55° C. at the total volume of 500 μL. To the reaction mixture was added 700 μL of ethanol after 0, 1, 3, and 6 hours of the reaction. After stirring and ultrasonication, the mixture was subjected to centrifugal separation at 15,000 rpm and 4° C. for 10 minutes. The supernatant was filtered through a filter and the existence of isoflavone glycosides and aglycon isoflavones contained in the reaction mixture was detected by HLPC (Tables 15 to 26).

[1] = pH6.6, heat treatment of enzyme: no, reaction time 0 h
[2] = pH6.6, heat treatment of enzyme: no, reaction time 1 h
[3] = pH6.6, heat treatment of enzyme: no, reaction time 3 h
[4] = pH6.6, heat treatment of enzyme: no, reaction time 6 h
[5] = pH6.6, heat treatment of enzyme: yes, reaction time 6 h

- Decomposition efficiency of genistin family in roasted soy flour (pH5, heat treatment of enzyme no, reaction time 0 h): 45.4
- Decomposition efficiency of genistin family in roasted soy flour (pH5, heat treatment of enzyme no, reaction time 1 h): 39.9
- Decomposition efficiency of genistin family in roasted soy flour (pH5, heat treatment of enzyme no, reaction time 3 h): 26.9
- Decomposition efficiency of genistin family in roasted soy flour (pH5, heat treatment of enzyme no, reaction time 6 h): 17.6
- Decomposition efficiency of genistin family in roasted soy flour (pH5, heat treatment of enzyme yes, reaction time 6 h): 42.0
- Decomposition efficiency of genistin family in concentrated soybean protein (pH5.1, heat treatment of enzyme: no, reaction time 0 h): 43.1%
- Decomposition efficiency of genistin family in concentrated soybean protein (pH5.1, heat treatment of enzyme: no, reaction time 1 h): 45.2%
- Decomposition efficiency of genistin family in concentrated soybean protein (pH5.1, heat treatment of enzyme: no, reaction time 3 h): 40.2%
- Decomposition efficiency of genistin family in concentrated soybean protein (pH5.1, heat treatment of enzyme: no, reaction time 6 h): 35.6%
- Decomposition efficiency of genistin family in concentrated soybean protein (pH5.1, heat treatment of enzyme: yes, reaction time 6 h): 42.4%
- Decomposition efficiency of genistin family in defatted soybean (pH5.4, heat treatment of enzyme: no, reaction time 0 h): 1.8%
- Decomposition efficiency of genistin family in defatted soybean (pH5.4, heat treatment of enzyme: no, reaction time 1 h): 0.5%
- Decomposition efficiency of genistin family in defatted soybean (pH5.4, heat treatment of enzyme: no, reaction time 3 h): not detected
- Decomposition efficiency of genistin family in defatted soybean (pH5.4, heat treatment of enzyme: no, reaction time 6 h): not detected
- Decomposition efficiency of genistin family in defatted soybean (pH5.4, heat treatment of enzyme: yes, reaction time 6 h): not detected
- Decomposition efficiency of genistin family in soymilk (pH6.2, heat treatment of enzyme: no, reaction time 0 h): 0.5%
- Decomposition efficiency of genistin family in soymilk (pH6.2, heat treatment of enzyme: no, reaction time 1 h): not detected
- Decomposition efficiency of genistin family in soymilk (pH6.2, heat treatment of enzyme: no, reaction time 3 h): not detected
- Decomposition efficiency of genistin family in soymilk (pH6.2, heat treatment of enzyme: no, reaction time 6 h): not detected
- Decomposition efficiency of genistin family in soymilk (pH6.2, heat treatment of enzyme: yes, reaction time 6 h): 0.6%
- Decomposition efficiency of genistin family in roasted soy flour (pH6.5, heat treatment of enzyme no, reaction time 0 h): 45.8
- Decomposition efficiency of genistin family in roasted soy flour (pH6.5, heat treatment of enzyme no, reaction time 1 h): 45.3
- Decomposition efficiency of genistin family in roasted soy flour (pH6.5, heat treatment of enzyme no, reaction time 3 h): 38.8
- Decomposition efficiency of genistin family in roasted soy flour (pH6.5, heat treatment of enzyme no, reaction time 6 h): 34.0
- Decomposition efficiency of genistin family in roasted soy flour (pH6.5, heat treatment of enzyme yes, reaction time 6 h): 39.2
- Decomposition efficiency of genistin family in concentrated soybean protein [1]: 43.0%
- Decomposition efficiency of genistin family in defatted soybean [1]: 1.7%
- Decomposition efficiency of genistin family in concentrated soybean protein [2]: 43.6%
- Decomposition efficiency of genistin family in defatted soybean [2]: 0.6%
- Decomposition efficiency of genistin family in concentrated soybean protein [3]: 42.8%
- Decomposition efficiency of genistin family in defatted soybean [3]: 0.3%
- Decomposition efficiency of genistin family in concentrated soybean protein [4]: 41.0%
- Decomposition efficiency of genistin family in defatted soybean [4]: 0.2%
- Decomposition efficiency of genistin family in concentrated soybean protein [5]: 40.6%
- Decomposition efficiency of genistin family in defatted soybean [5]: 0.2%
- Decomposition efficiency of genistin family in soymilk (pH7.2, heat treatment of enzyme: no, reaction time 0 h): 0.7%
- Decomposition efficiency of genistin family in soymilk (pH7.2, heat treatment of enzyme: no, reaction time 1 h): not detected
- Decomposition efficiency of genistin family in soymilk (pH7.2, heat treatment of enzyme: no, reaction time 3 h): not detected
- Decomposition efficiency of genistin family in soymilk (pH7.2, heat treatment of enzyme: no, reaction time 6 h): not detected
- Decomposition efficiency of genistin family in soymilk (pH7.2, heat treatment of enzyme: yes, reaction time 6 h): 0.7%
- Decomposition efficiency of genistin family in defatted soybean (pH7.8, heat treatment of enzyme: no, reaction time 0 h): 1.6%
- Decomposition efficiency of genistin family in defatted soybean (pH7.8, heat treatment of enzyme: no, reaction time 1 h): 1.0%
- Decomposition efficiency of genistin family in defatted soybean (pH7.8, heat treatment of enzyme: no, reaction time 3 h): 0.8%
- Decomposition efficiency of genistin family in defatted soybean (pH7.8, heat treatment of enzyme: no, reaction time 6 h): 0.7%
- Decomposition efficiency of genistin family in defatted soybean (pH7.8, heat treatment of enzyme: yes, reaction time 6 h): 0.6%
- Decomposition efficiency of genistin family in roasted soy flour (pH8.5, heat treatment of enzyme no, reaction time 0 h): 39.5
- Decomposition efficiency of genistin family in roasted soy flour (pH8.5, heat treatment of enzyme no, reaction time 1 h): 39.5
- Decomposition efficiency of genistin family in roasted soy flour (pH8.5, heat treatment of enzyme no, reaction time 3 h): 39.2
- Decomposition efficiency of genistin family in roasted soy flour (pH8.5, heat treatment of enzyme no, reaction time 6 h): 37.3
- Decomposition efficiency of genistin family in roasted soy flour (pH8.5, heat treatment of enzyme yes, reaction time 6 h): 35.2
- Decomposition efficiency of genistin family in concentrated soybean protein (pH8.6, heat treatment of enzyme: no, reaction time 0 h): 39.7%
- Decomposition efficiency of genistin family in concentrated soybean protein (pH8.6, heat treatment of enzyme: no, reaction time 1 h): 38.8%
- Decomposition efficiency of genistin family in concentrated soybean protein (pH8.6, heat treatment of enzyme: no, reaction time 3 h): 39.0%
- Decomposition efficiency of genistin family in concentrated soybean protein (pH8.6, heat treatment of enzyme: no, reaction time 6 h): 38.5%
- Decomposition efficiency of genistin family in concentrated soybean protein (pH8.6, heat treatment of enzyme: yes, reaction time 6 h): 37.6%
- Decomposition efficiency of genistin family in soymilk (pH11.6, heat treatment of enzyme: no, reaction time 0 h): 0.5%
- Decomposition efficiency of genistin family in soymilk (pH11.6, heat treatment of enzyme: no, reaction time 1 h): not detected
- Decomposition efficiency of genistin family in soymilk (pH11.6, heat treatment of enzyme: no, reaction time 3 h): not detected
- Decomposition efficiency of genistin family in soymilk (pH11.6, heat treatment of enzyme: no, reaction time 6 h): not detected
- Decomposition efficiency of genistin family in soymilk (pH11.6, heat treatment of enzyme: yes, reaction time 6 h): 0.9%
Compound: CC(=O)OC[C@H]1O[C@@H](Oc2cc(O)c3c(=O)c(-c4ccc(O)cc4)coc3c2)[C@H](O)[C@@H](O)[C@@H]1O [acetylgenistin, 6″-O-acetylgenistin]
